The record followed here is ChEMBL document CHEMBL1201862, “PubChem BioAssay data set” (2004).

Assay [1] has as its target Eukaryotic translation initiation factor 4H (Homo sapiens, UniProt Q15056). Description: human eIF4H binding inhibitors, primary screen, translation initiation inhibitor project, biochemical, uHTS, fluorescence polarization (AID 2012). (Polarisation of emitted light reports the rotation of a fluorescent probe.)
Assay [2] concerns the target Polyadenylate-binding protein 1 (Homo sapiens, UniProt P11940). The experiment in a line: PABP poly(A) RNA binding inhibitors, primary screen, biochemical, fluorescence polarization, uHTS (AID 2014).
For assay [3], the target named is T1, DNA dC->dU-editing enzyme APOBEC-3G (Homo sapiens, UniProt Q9HC16). The experiment in a line: Dose Response confirmation of small molecule APOBEC3G DNA Deaminase Inhibitors via a fluorescence-based single-stranded DNA deaminase assay. [Related pubchem assays (depositor defined):AID493012, AID493028]. The assay is classed as functional.
T1 sequence (Q9HC16 whole entry): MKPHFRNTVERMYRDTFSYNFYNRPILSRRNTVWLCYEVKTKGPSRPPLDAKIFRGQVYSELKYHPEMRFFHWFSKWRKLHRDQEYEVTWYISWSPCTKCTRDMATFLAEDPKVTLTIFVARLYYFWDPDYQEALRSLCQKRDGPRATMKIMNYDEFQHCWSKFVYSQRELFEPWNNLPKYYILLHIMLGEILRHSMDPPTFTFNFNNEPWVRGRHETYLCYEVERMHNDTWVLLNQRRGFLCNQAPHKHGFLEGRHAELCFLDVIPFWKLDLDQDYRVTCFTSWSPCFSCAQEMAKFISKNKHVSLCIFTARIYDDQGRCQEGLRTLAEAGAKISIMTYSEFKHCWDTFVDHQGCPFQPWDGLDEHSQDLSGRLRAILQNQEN
The target of assay [4] is FAD-linked sulfhydryl oxidase ALR (Homo sapiens, UniProt P55789). The experiment in a line: inhibitors of human ALR sulfhydryl oxidase, dose response, biochemical, H2O2 detection, luminescence, cherry-pick (AID 493248).
Sequence of FAD-linked sulfhydryl oxidase ALR (P55789 whole entry): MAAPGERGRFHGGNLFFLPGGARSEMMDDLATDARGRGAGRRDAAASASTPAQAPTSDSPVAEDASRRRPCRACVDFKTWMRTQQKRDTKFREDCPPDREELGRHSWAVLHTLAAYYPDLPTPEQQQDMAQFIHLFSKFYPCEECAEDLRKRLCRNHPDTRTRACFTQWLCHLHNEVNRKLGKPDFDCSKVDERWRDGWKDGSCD
Assay [5] concerns the target T2, Short transient receptor potential channel 4 (Mus musculus, UniProt Q9QUQ5).
T2 sequence (Q9QUQ5 whole entry): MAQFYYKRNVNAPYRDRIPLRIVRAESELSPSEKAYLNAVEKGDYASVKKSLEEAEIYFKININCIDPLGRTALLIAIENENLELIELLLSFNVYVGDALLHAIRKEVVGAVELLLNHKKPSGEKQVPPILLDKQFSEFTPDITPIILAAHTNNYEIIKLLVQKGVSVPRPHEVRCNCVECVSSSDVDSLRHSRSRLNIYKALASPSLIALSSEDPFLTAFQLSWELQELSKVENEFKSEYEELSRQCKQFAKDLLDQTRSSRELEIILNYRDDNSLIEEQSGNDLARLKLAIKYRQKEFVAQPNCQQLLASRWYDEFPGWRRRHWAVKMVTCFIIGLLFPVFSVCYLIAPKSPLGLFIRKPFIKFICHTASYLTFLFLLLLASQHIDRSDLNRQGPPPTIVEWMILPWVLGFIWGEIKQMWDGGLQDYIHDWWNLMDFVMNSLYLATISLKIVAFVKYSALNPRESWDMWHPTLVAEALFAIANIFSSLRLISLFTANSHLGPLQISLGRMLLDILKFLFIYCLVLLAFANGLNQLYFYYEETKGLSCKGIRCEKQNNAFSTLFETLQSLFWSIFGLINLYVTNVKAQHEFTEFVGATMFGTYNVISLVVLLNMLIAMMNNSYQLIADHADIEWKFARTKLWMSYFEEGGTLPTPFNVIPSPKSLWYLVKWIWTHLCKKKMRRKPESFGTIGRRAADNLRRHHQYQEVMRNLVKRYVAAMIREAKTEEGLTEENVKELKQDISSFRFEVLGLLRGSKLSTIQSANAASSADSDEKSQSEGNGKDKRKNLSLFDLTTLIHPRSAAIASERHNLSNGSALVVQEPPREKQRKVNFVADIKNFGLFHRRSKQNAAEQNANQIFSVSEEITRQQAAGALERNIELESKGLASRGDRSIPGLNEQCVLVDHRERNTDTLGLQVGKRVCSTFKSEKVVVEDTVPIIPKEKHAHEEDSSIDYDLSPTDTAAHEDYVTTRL
Description: mouse TRPC4 channel activators, dose response, cell-based, HEK293 TRPC4/mu-opioid, Fluo-4 calcium (AID 434937). Type of assay: functional.

The target in assay [6] is G-protein coupled receptor 55 (Homo sapiens, UniProt Q9Y2T6). The experiment in a line: GPR55 agonists via beta-arrestin recruitment, primary screen, imaging, U2OS cells, beta-arrestin-GFP redistribution (AID 1961). The assay is classed as functional. A general note: Activated receptors often draw arrestin, which recruitment assays turn into a signal.
Sequence of G-protein coupled receptor 55 (Q9Y2T6 whole entry): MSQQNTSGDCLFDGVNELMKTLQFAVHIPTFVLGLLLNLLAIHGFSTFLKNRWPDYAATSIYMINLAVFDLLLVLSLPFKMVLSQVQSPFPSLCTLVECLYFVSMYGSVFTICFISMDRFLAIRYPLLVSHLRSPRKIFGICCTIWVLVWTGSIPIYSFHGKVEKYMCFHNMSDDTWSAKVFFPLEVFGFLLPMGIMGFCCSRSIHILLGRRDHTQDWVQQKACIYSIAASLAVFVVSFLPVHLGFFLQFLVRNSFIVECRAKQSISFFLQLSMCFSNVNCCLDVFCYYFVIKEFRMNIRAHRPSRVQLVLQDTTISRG
The target of the next assay is Large T antigen (Simian virus 40, UniProt P03070). Type of assay: functional, Betapolyomavirus macacae.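 Also: Confirmatory-stage PubChem screen for compounds that inhibit SV40 T antigen.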
Sequence of Large T antigen (P03070 whole entry): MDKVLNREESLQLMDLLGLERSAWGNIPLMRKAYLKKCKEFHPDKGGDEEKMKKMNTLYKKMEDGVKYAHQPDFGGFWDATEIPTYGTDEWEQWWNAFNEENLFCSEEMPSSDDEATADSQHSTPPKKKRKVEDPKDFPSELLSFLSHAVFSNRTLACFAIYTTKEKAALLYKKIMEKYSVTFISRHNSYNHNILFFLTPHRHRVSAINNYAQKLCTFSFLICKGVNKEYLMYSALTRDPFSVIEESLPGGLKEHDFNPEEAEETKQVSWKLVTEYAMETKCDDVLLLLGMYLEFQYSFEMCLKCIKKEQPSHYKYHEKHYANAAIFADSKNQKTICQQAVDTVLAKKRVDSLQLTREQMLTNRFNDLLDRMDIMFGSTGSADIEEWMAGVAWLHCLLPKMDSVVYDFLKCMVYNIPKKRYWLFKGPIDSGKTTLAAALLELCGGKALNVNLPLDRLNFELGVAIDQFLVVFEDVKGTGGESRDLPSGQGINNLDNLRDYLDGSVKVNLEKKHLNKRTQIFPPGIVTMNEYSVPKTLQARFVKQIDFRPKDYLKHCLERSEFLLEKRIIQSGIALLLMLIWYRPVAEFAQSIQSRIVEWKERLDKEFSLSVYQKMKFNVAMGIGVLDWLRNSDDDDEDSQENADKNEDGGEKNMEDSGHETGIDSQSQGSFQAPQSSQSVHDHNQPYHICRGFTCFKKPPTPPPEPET
For assay [7], the target named is T3, Replicative DNA helicase DnaB (Mycobacterium tuberculosis, UniProt P9WMR3).
T3 sequence (P9WMR3 whole entry): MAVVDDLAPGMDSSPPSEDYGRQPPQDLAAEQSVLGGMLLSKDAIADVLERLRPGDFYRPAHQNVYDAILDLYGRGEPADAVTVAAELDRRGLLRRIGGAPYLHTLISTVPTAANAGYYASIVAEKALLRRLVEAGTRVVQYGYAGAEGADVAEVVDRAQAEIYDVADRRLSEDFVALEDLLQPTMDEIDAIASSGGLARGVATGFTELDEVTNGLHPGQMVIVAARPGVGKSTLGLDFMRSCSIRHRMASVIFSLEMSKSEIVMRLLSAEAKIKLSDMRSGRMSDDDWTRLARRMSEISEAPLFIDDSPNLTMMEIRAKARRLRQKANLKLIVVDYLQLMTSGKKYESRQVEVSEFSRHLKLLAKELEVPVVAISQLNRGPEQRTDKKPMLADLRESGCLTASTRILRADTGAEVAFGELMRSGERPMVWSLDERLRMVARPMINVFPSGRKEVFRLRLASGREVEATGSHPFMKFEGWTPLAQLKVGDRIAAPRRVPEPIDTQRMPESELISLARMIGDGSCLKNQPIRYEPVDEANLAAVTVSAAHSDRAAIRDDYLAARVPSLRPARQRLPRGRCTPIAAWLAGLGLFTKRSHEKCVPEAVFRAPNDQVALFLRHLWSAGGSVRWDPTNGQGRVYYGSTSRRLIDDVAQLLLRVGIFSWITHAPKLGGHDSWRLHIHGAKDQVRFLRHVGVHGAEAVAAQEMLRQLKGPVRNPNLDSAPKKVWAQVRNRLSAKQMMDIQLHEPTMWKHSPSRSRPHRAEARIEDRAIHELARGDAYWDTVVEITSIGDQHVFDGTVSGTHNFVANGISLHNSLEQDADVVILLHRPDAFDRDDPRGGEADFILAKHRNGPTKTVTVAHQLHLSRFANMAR
The experiment in a line: DnaB intein splicing inhibitors, dose response, biochemical, cell-free fluorescence (AID 449749). The assay is classed as functional.

The target in assay [8] is Glucose-6-phosphate 1-dehydrogenase (Homo sapiens, UniProt P11413). Description: human G6PD enzyme inhibitors, dose response, selectivity assay for P. falciparum G6PD inhibitor project, biochemical, fluorescence (AID 504792). Type of assay: functional.
Sequence of Glucose-6-phosphate 1-dehydrogenase (P11413 whole entry): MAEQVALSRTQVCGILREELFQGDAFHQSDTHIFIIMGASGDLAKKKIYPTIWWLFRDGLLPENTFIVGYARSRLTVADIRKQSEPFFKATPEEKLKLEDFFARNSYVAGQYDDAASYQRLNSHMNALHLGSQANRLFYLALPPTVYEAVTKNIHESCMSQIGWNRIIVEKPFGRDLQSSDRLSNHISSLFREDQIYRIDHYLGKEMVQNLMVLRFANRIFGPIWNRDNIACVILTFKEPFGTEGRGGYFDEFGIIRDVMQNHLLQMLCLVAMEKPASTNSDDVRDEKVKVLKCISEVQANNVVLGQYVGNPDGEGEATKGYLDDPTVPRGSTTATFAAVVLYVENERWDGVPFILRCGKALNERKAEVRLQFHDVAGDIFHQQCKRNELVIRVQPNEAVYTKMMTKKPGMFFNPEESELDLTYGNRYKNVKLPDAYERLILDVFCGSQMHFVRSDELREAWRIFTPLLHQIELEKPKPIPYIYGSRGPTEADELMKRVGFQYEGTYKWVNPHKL
A further assay deals with T4, Protein RecA (Mycobacterium tuberculosis, UniProt P9WHJ3).
T4 sequence (P9WHJ3 whole entry): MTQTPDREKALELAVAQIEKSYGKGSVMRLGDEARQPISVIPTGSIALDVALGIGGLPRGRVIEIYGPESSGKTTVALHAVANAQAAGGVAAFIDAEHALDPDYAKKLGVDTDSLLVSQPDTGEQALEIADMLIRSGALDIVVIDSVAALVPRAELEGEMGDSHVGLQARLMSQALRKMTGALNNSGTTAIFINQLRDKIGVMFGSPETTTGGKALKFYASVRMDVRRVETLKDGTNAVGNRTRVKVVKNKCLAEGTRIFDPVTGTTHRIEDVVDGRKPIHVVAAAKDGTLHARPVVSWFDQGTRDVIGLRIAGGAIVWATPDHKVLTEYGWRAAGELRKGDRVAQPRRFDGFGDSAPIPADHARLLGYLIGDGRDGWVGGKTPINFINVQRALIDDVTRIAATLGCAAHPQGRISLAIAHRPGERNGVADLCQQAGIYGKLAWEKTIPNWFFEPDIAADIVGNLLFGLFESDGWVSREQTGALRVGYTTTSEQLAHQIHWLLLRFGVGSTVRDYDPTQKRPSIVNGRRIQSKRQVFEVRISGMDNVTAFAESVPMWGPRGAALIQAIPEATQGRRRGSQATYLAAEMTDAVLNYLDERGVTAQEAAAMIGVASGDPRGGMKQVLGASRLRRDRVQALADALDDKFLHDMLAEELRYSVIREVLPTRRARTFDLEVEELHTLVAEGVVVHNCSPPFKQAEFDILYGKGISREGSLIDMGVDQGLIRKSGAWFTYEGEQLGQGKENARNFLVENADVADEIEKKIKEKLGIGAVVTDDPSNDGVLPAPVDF
The experiment in a line: Fluorescence Cell-Free Homogeneous Dose Retest to Identify Inhibitors of RecA-Intein Splicing Activity. [Related pubchem assays (depositor defined):AID2097, AID2223, AID489010, AID492950]. The assay is classed as functional.

The target of assay [9] is T1, DNA dC->dU-editing enzyme APOBEC-3G. The assay is classed as functional.
Assay [10] addresses DNA dC->dU-editing enzyme APOBEC-3A (Homo sapiens, UniProt P31941). The experiment in a line: Dose Response confirmation of small molecule APOBEC3A DNA Deaminase Inhibitors via a fluorescence-based single-stranded DNA deaminase assay. [Related pubchem assays (depositor defined):AID493011, AID493024]. Type of assay: functional.
Another assay concerns the target T5, Aminopeptidase N (Plasmodium falciparum FcB1/Columbia, UniProt O96935).
T5 sequence (O96935 whole entry): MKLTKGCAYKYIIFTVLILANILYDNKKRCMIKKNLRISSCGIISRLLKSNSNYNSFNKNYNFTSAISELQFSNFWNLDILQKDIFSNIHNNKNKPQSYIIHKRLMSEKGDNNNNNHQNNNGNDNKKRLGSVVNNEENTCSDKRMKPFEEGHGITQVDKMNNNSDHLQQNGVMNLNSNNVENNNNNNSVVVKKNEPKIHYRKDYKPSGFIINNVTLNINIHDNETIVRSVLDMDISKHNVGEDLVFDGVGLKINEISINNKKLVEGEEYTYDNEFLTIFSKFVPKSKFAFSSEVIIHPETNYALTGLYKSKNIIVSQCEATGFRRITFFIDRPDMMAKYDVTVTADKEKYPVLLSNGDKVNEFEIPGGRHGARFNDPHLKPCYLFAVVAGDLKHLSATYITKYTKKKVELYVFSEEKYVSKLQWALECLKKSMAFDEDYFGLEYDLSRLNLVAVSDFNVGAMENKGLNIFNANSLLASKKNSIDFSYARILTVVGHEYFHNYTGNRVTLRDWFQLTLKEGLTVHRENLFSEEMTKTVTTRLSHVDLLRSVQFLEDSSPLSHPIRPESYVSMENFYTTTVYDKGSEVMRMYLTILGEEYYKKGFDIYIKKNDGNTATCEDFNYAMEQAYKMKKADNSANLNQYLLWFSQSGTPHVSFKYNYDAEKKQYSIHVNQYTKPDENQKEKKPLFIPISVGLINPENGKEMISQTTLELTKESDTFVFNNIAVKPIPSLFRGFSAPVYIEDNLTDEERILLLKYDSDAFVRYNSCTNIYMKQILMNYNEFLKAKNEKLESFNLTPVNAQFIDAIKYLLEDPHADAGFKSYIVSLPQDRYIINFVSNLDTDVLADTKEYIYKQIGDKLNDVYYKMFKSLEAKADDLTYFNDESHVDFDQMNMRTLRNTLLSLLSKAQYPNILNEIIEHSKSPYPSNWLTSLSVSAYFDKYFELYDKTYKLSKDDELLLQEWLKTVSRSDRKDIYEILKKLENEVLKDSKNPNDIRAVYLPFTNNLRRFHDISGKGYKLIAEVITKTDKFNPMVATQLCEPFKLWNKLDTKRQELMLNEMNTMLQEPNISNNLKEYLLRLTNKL
The experiment in a line: P. falciparum M1AAP inhibitors, biochemical, fluorogenic H-Leu-NHMec substrate, 1536-well (AID 1445). Set-up: species or system Plasmodium falciparum 3D7, 3D7.

The nature of assay [11]: HEp-2 cell cytotoxicity, dose response, cytotoxicity control for RSV inhibitor project, HTS (AID 2410). Type of assay: functional. Particulars: human respiratory syncytial virus.

Calls of active or inactive are those of the source.

Sequence of Polyadenylate-binding protein 1 (P11940 whole entry): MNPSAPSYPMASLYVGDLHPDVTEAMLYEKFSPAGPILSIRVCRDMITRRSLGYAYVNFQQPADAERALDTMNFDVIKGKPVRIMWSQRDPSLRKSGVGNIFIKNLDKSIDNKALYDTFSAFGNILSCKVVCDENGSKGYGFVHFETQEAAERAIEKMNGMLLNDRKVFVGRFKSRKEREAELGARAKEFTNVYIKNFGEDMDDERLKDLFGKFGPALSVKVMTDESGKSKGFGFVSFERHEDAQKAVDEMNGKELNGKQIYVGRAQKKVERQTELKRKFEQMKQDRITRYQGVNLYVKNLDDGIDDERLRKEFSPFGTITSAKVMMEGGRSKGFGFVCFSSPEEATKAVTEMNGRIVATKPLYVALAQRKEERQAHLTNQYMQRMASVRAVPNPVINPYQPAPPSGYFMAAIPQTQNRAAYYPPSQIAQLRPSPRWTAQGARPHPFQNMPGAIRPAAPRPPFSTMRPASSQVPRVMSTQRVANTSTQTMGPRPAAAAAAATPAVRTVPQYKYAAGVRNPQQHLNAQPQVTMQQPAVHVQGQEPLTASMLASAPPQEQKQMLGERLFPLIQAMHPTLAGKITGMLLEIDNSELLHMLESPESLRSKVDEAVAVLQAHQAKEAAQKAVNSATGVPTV
Sequence of DNA dC->dU-editing enzyme APOBEC-3A (P31941 whole entry): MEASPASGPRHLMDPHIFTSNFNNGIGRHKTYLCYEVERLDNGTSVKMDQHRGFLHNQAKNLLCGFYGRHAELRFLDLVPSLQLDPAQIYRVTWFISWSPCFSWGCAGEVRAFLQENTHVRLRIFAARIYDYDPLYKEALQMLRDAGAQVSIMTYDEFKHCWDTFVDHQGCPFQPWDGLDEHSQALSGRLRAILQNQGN

In the case of `CCN1C(=NCC(C)C)N[C@@H](c2cccc(F)c2)C(C(=O)OC)=C1C`, the IC50 was > 100 µM (inactive) in [1] and 5.33 µM (active) in assay [2].

As to `O=S(=O)(Nc1ccc(O)c(NS(=O)(=O)c2ccccc2)c1)c1ccccc1`, the IC50 in assay [3] is 55.1 µM (active). Also, in assay [4], the AC50 is 1.23 µM (active).

As for `Cc1cc(=O)n2nc(-c3ccccc3)sc2c1C#N`, the IC50 in [3] was 39.2 µM (active).

In the case of `CCn1c(N2CCN(S(=O)(=O)CC)CC2)nc2ccccc21`, the EC50 in [5] is 2.66 µM (active).

In the case of `COc1ccc(C(=O)NC(=S)NCc2ccc(-c3nc4ccccc4o3)cc2)cc1OC`, in assay [6], the EC50 was > 32 µM (inactive).

On to `CC1(C)Nc2ccc(O)cc2-c2c1ssc2=S`, for which the IC50 at Large T antigen was > 100 µM (active); in assay [8] it was > 80 µM (inactive). The AC50 in [7] was 9 µM (active). The EC50 on Protein RecA is 0.998 µM (active).

With `CCN1C(NCCOC)=N[C@@H](CCc2ccccc2)[C@H](C(=O)OC)[C@H]1C`, the IC50 in assay [1] is > 100 µM (inactive); in assay [9] it was 4.15 µM (active); in assay [2] it was 8.16 µM (active); in [10], 3.39 µM (active).

`O=C(NCCNC1CCC(c2ccccc2)CC1)c1cccs1` (centres undefined): in assay [5], the concentration for a half-maximal effect (EC50) was 0.335 µM (active).

Turning to `O=C(NCc1ccccc1)C1CCN(S(=O)(=O)c2cccc3cccnc23)CC1`, on Aminopeptidase N, the half-inhibitory concentration (IC50) is 42.1 µM (active).

With `Cc1nnc(SCC(=O)c2cc(C)n(-c3ccc4c(c3)OCO4)c2C)s1`, the IC50 in [8] was > 80 µM (inactive).

As for `CC(CCc1ccccc1)NC(=O)C(Cc1ccccc1)NS(=O)(=O)c1cccs1` (centres undefined), the IC50 on Aminopeptidase N is 71.4 µM (active).

In the case of `CN(C)c1cccc2c1c(NC(=O)c1ccc(F)cc1)nn2C`, the IC50 in [8] was > 80 µM (inactive).

For the compound `CCOCCCn1c(S)nnc1-c1ccc(Cl)cc1`, the 50% inhibitory concentration (IC50) in [3] is 13.8 µM (active).

On to `C[N+]1(C)C2CCC1CC(OC(=O)c1ccccc1)C2` (centres undefined), for which the IC50 was 1.75 µM (active) in [9] and 2.96 µM (active) in assay [10].

`COC(=O)C1=C(C)N(Cc2ccccc2)C(NCCCOC(C)C)=N[C@H]1c1ccccc1`: the results for the half-inhibitory concentration (IC50) in [9] and in assay [10] were 5.12 µM (active) and 3.37 µM (active), respectively.

Regarding `CCOc1ccccc1/N=C1/SCCCN1C`, the IC50 in assay [1] was > 100 µM (inactive); in assay [2], 4.4 µM (active).

On to `CCOc1cc(C2Nc3cccc4cccc(c34)N2)ccc1O`, for which the EC50 in [6] was 8.01 µM (active). The CC50 in assay [11] was 20.2 µM (active).

What is called IC50 is the concentration at which inhibition is half-maximal. Usually AC50 stands for the concentration giving half of the maximal activity seen. Usually EC50 stands for the midpoint of the concentration-response curve. By CC50 is commonly meant the concentration giving 50% cytotoxicity.
